Molecules are shown by their SMILES. Converted amounts (≈) assume the structure as drawn. Where only a bound is given, the exact number is not on record here.

Data set [1] has as its system Mycobacterium tuberculosis. Description: Antitubercular activity against Mycobacterium tuberculosis H37Rv incubated for 10 days in anaerobic condition followed by 48 hrs incubation in aerobic condition by LORA assay. The class given is functional.
The test system of another data set is Vero. Description: Cytotoxicity against african green monkey Vero cells after 72 hrs by CellTiterGlo assay. The following applies: chlorocebus sabaeus, vero, 72 h.
Data set [2] has as its system Mycobacterium tuberculosis. In words: Antitubercular activity against Mycobacterium tuberculosis H37Rv isolate ITR after 7 days by luminescence spectrometry. It is filed as functional. The following applies: 168 h.
Data set [3] in a line: Selectivity index, ratio of CC50 for Vero cells to MIC90 for Mycobacterium tuberculosis H37Rv isolate SRI. The class given is functional.
For data set [4], the system named is Mycobacterium tuberculosis. In words: Antitubercular activity against Mycobacterium tuberculosis H37Rv isolate SRI after 5 days by resazurin-based microplate assay. The class given is functional. The conditions noted are these: 120 h.

As usually defined, the MIC90 is an inhibitory concentration at the 90% level, which refers to growth in some studies and to a panel of isolates in others. The term CC50 denotes the concentration giving 50% cytotoxicity. In the case of `[O-][n+]1nc(NC2CCCCC2)[n+]([O-])c2ccc(Cl)cc21`, the values for the MIC90 in data set [1], in data set [2] and in data set [4] were 0.63 µg/mL (≈ 2.14 µM), 0.94 µg/mL (≈ 3.19 µM) and 0.62 µg/mL (≈ 2.1 µM), respectively. The cytotoxic concentration (CC50) in the data set on Vero amounted to 2.6 µg/mL (≈ 8.82 µM). Also, the “Selectivity Index” value in data set [3] is 4.2.

In the case of `[O-][n+]1nc(N[C@@H]2C[C@H]3CC[C@@H]2C3)[n+]([O-])c2ccc(Cl)cc21`, the MIC90 in data set [1] worked out at 0.23 µg/mL (≈ 0.75 µM); in data set [2], 0.22 µg/mL (≈ 0.717 µM); in data set [4] it was 0.15 µg/mL (≈ 0.489 µM). The compound also came in with a CC50 in the data set with Vero of 1.1 µg/mL (≈ 3.59 µM). For the same compound, the “Selectivity Index” value in data set [3] came out at 7.3.

With `CCNc1n[n+]([O-])c2cc(Br)ccc2[n+]1[O-]`, the MIC90 in data set [1] turned out to be 0.46 µg/mL (≈ 1.61 µM); in data set [2], 0.49 µg/mL (≈ 1.72 µM); in data set [4], 0.62 µg/mL (≈ 2.17 µM). In the data set on Vero, this compound yielded a CC50 of 4.2 µg/mL (≈ 14.7 µM). Moreover, the “Selectivity Index” value in data set [3] is reported as 6.7.

For the compound `[O-][n+]1nc(NC2CCC2)[n+]([O-])c2ccc(Br)cc21`, the MIC90 in data set [1] was 0.41 µg/mL (≈ 1.32 µM); in data set [2], 0.46 µg/mL (≈ 1.48 µM); in data set [4], 0.15 µg/mL (≈ 0.482 µM). The same compound had a CC50 with Vero of 3.8 µg/mL (≈ 12.2 µM). Further, in data set [3], the “Selectivity Index” value was determined as 24.

Consider `[O-][n+]1nc(NC2CCCC2)[n+]([O-])c2ccc(Br)cc21`, for which the MIC90 in data set [1] is 0.46 µg/mL (≈ 1.41 µM); in data set [2], 0.35 µg/mL (≈ 1.08 µM); in data set [4], 0.15 µg/mL (≈ 0.461 µM). Further, the cytotoxic concentration (CC50) with Vero was found to be 18 µg/mL (≈ 55.4 µM). The “Selectivity Index” value in data set [3] is on record as 110.

Regarding `[O-][n+]1nc(N[C@@H]2C[C@H]3CC[C@@H]2C3)[n+]([O-])c2ccc(Br)cc21`, the MIC90 in data set [1] worked out at 0.41 µg/mL (≈ 1.17 µM); in data set [2] it was 0.36 µg/mL (≈ 1.03 µM); in data set [4], 0.31 µg/mL (≈ 0.883 µM). In addition, in the data set with Vero, the CC50 turned out to be 0.8 µg/mL (≈ 2.28 µM). Besides, in data set [3], the “Selectivity Index” value was 2.6.

Consider `CCNc1n[n+]([O-])c2cc(OC)ccc2[n+]1[O-]`, for which the figures for the MIC90 in data set [1], in data set [2] and in data set [4] were 16 µg/mL (≈ 67.7 µM), 15 µg/mL (≈ 63.5 µM) and 2.5 µg/mL (≈ 10.6 µM), respectively. Further, the “Selectivity Index” value in data set [3] stood at 6.3.

`COc1ccc2c(c1)[n+]([O-])nc(NC1CCC1)[n+]2[O-]`: the results for the MIC90 in data set [1], in data set [2] and in data set [4] were 0.9 µg/mL (≈ 3.43 µM), 0.96 µg/mL (≈ 3.66 µM) and 0.62 µg/mL (≈ 2.36 µM), respectively. In addition, the CC50 in the data set on Vero was found to be 9.8 µg/mL (≈ 37.4 µM). Moreover, the “Selectivity Index” value in data set [3] is reported as 16.

For `COc1ccc2c(c1)[n+]([O-])nc(N[C@@H]1C[C@H]3CC[C@@H]1C3)[n+]2[O-]`, the values for the MIC90 in data set [1], in data set [2] and in data set [4] were 1.6 µg/mL (≈ 5.29 µM), 0.97 µg/mL (≈ 3.21 µM) and 0.62 µg/mL (≈ 2.05 µM), respectively. Further, in the data set with Vero, the CC50 was > 50 µg/mL. For the same compound, the “Selectivity Index” value in data set [3] is listed as >80.

Consider `Cc1cccc2c1[n+]([O-])c(NC1CCC1)n[n+]2[O-]`, for which the MIC90 in data set [1] is 0.43 µg/mL (≈ 1.75 µM); in data set [2] it was 0.47 µg/mL (≈ 1.91 µM); in data set [4] it was 0.31 µg/mL (≈ 1.26 µM). Further, the CC50 in the data set with Vero stood at 22 µg/mL (≈ 89.3 µM). In data set [3], the “Selectivity Index” value came to 70.

Regarding `Cc1cccc2c1[n+]([O-])c(NC1CCCC1)n[n+]2[O-]`, the MIC90 turned out to be 0.27 µg/mL (≈ 1.04 µM) in data set [1], 0.43 µg/mL (≈ 1.65 µM) in data set [2] and 0.31 µg/mL (≈ 1.19 µM) in data set [4]. The compound further registered a CC50 in the data set on Vero of 3.7 µg/mL (≈ 14.2 µM). In addition, in data set [3], the “Selectivity Index” value amounted to 12.

Take `[O-][n+]1nc(N[C@@H]2C[C@H]3CC[C@@H]2C3)[n+]([O-])c2cc3c(cc21)CCC3`: the figures for the MIC90 in data set [1], in data set [2] and in data set [4] were 0.36 µg/mL (≈ 1.15 µM), 0.93 µg/mL (≈ 2.98 µM) and 1.2 µg/mL (≈ 3.84 µM), respectively. Moreover, the 50% cytotoxic concentration (CC50) in the data set on Vero was > 50 µg/mL. In addition, the “Selectivity Index” value in data set [3] is given as >41.

Consider `COc1cc2c(cc1C)[n+]([O-])nc(NC1CCC1)[n+]2[O-]`, for which the values for the MIC90 in data set [1], in data set [2] and in data set [4] were 2.9 µg/mL (≈ 10.5 µM), 5.1 µg/mL (≈ 18.5 µM) and 2.5 µg/mL (≈ 9.05 µM), respectively. Besides, in the data set with Vero, the CC50 is > 50 µg/mL. In data set [3], the “Selectivity Index” value is reported as >20.

As for `[O-][n+]1nc(N2CCOCC2)[n+]([O-])c2ccccc21`, the MIC90 in data set [1] is 19 µg/mL (≈ 76.5 µM); in data set [2], 3.7 µg/mL (≈ 14.9 µM); in data set [4] it was 2.5 µg/mL (≈ 10.1 µM). In the data set with Vero, this compound displayed a CC50 of 5.4 µg/mL (≈ 21.8 µM). Besides, in data set [3], the “Selectivity Index” value was found to be 2.2.

With `C[C@@H](Nc1n[n+]([O-])c2ccccc2[n+]1[O-])C1CCCCC1`, the MIC90 was 0.36 µg/mL (≈ 1.25 µM) in data set [1], 0.92 µg/mL (≈ 3.19 µM) in data set [2] and 1.2 µg/mL (≈ 4.16 µM) in data set [4]. The compound also had a CC50 in the data set on Vero of 8.9 µg/mL (≈ 30.9 µM). In data set [3], the “Selectivity Index” value stood at 7.1.

As for `CCN(CC)c1n[n+]([O-])c2ccccc2[n+]1[O-]`, the values for the MIC90 in data set [1], in data set [2] and in data set [4] were 1.3 µg/mL (≈ 5.55 µM), 0.46 µg/mL (≈ 1.96 µM) and 0.31 µg/mL (≈ 1.32 µM), respectively. Further, the CC50 in the data set on Vero turned out to be 12 µg/mL (≈ 51.2 µM). Besides, the “Selectivity Index” value in data set [3] is on record as 40.

For `[O-][n+]1nc(NC2CCCCC2)[n+]([O-])c2ccccc21`, the MIC90 in data set [1] turned out to be 0.75 µg/mL (≈ 2.88 µM); in data set [2], 3.8 µg/mL (≈ 14.6 µM); in data set [4] it was 2.5 µg/mL (≈ 9.6 µM). In the data set with Vero, this compound gave a cytotoxic concentration (CC50) of 8.9 µg/mL (≈ 34.2 µM). The “Selectivity Index” value in data set [3] turned out to be 3.6.

`O=C(Cn1ccnc1[N+](=O)[O-])NCCO` [ETANIDAZOLE]: the MIC90 in data set [1] was 26 µg/mL (≈ 121 µM); in data set [2], > 32 µg/mL; in data set [4] it was > 10 µg/mL. In addition, the CC50 in the data set on Vero is > 16 µg/mL.

For the compound `Cc1ncc([N+](=O)[O-])n1CCO` [METRONIDAZOLE], the values for the MIC90 in data set [1], in data set [2] and in data set [4] were 11 µg/mL (≈ 64.3 µM), > 32 µg/mL and > 10 µg/mL, respectively. In addition, the CC50 in the data set with Vero is > 16 µg/mL.
